Laboratory results taken from patent publication US20230011398A1, “COMBINATION THERAPY APPROACH TO ELIMINATE HIV INFECTIONS” (priority 2019, published 2023).

Tests used:
[1] = test system: HIV-1-infected T cells; assay: Annexin V / DEVD-FITC / p24 cell death assay in T cells with or without HIV-1 infection; type: cell-based, human; conditions: for IDB-induced killing of T cells latently infected by HIV-1: added to 0.1 μM IDB, SAR405 2 μM or ABT-263 0.2 μM; for IDB-induced cell death in HIV-1-infected CMT: autophagy inhibitor added to 100 nM IDB, 24 h
Procedure: Naïve T cells, activated T cells, CMT or EMT with or without infection with HIV-1 (NL4-3, 1 MOI) were cultured for 4 days in the presence of 30 nM CCL19 and 0.3 ng/ml IL-2 for 4 days to establish latent HIV infection. […] The cells were then incubated with 1 μM FITC-DEVD-FMK (Biovision), followed by staining with APC-Annexin V (Biolegend) and intracellular staining with PE-anti-HIV p24. The cells were analyzed by flow cytometry. The percentage of cell death was calculated by the loss of live cells negative for annexin V and DEVD staining by comparing treated and untreated groups: (untreated—treated)/untreated x 100%.

[2] = test system: HIV-1-infected cells and uninfected bystander T cells; assay: Mixed culture of HIV-1-infected and CellTrace Violet-labeled uninfected T cells; conditions: alone or together, 0.2 μM BMS-626529 present, 48 h
Procedure: To determine the specificity in the killing of HIV-1 infected cells, uninfected CD4 cells were labeled with CellTrace Violet dye (ThermoFisher Scientific) and mixed with HIV-1-infected cells at the ratio of 1:1. The cells were resuspended in RIPMI complete medium containing 0.2 μM BMS-626529, with 0.1 μM IDB, 0.2 μM ABT-263 and 2 μM SAR405 as indicated for 48 h. The cells were incubated with 1 μM FITC-DEVD-FMK, followed by staining with APC-Annexin and analyses by flow cytometry.

[3] = test system: CMT latently infected with HIV-1; assay: HIV-1 latency reversal in latently infected central memory T cells (p24 staining, HIV-1 mRNA RT-PCR); type: cell-based, human; conditions: for number of HIV-1 p24-producing T cells after latency reversal: latently infected CMT stimulated with IDB, SAR405 2 μM or CQ 10 μM
Text: Flow cytometry. The following antibodies from Biolegend were used for flow cytometry: Pacific Blue-anti-mouse CD45 (1:100, 103126, clone 30-F11,) APC-anti-human CD45 (1:100, 304012, clone HI30), Pacific Blue-anti-human CD19 (1:100, 302232, clone HIB19), PE-anti-human CD4 (1:100, 317414, clone OKT4), APC/Fire-750-anti-human CD8 (1:100, 34474, clone SK1), FITC-anti-human CD56 (1:100, 392413, clone QA17A16), Pacific Blue-anti-human CD19 (1:100, 302232, clone HIB19), Pacific Blue-anti-human CD3 (1:100, 300329, clone HIT3a), PE/Cy7-anti-HLA-HLA-DR, DP, DQ (1:100, 361708, clone Tü139), PerCP/Cy5.5-anti-human CD11b (1:100, 301327, clone ICRF44), APC/Fire-750-anti-human CD163 (1:100, 333633, clone GHI/61), PE-anti-human CD123 (1:100, 306005, clone 6H6), Alexa Fluor 488 anti-human CD11c (1:100, 301618, clone 3.9), PerCP/Cy5.5-anti-human CD3 (1:100, 300328, clone HIT3a), PerCP/Cy5.5 anti-human CD123 (1:100, 306016, clone 6H6), FITC-anti-mouse CD45 (1:100, 103108, clone 30-F11), PE/Cy7 anti-human CD197 (CCR7) (1:100, 353226, clone G043H7), PE-anti-human CD45R0 (1:100, 304244, clone UCHL1), FITC-anti-human CD45RA (1:100, 304148, clone HI100) and Alexa Fluor 488-anti-CD68 (1:30, 333812, clone Y1/82A), PerCP/Cy5.5-anti-human CD19 (1:100, 302230, clone HIB19), PE-anti-human CD27 (1:100, 356406, clone M-T271) and Pacific Blue-anti-human IgD (1:100, 348224, clone IA6-2). PE-anti-human CD3 (1:100, 556612, clone SP34) and V50-anti-human CD4 (1:100, 560345, clone RPA-T4) were from BD Biosciences. The cells stained with indicated antibodies were analyzed using a BD LSR II flow cytometer (BD Biosciences). To detect HIV-1 p24, spleen cells from Hu-HSC mice were stimulated with 5 μg/ml PHA (Sigma) and 6 ng/ml IL-2 (Biolegend). The cells were stained for T cell markers, followed by fixation and permeabilization using the Cytofix/Cytoperm buffer (BD Bioscience) and intracellular staining with PE-conjugated anti-p24 (1:30, 6604667, clone KC57, Beckman Coulter). The cells were analyzed by flow cytometry using a BD LSR II flow cytometer (BD Bioscience) and FlowJo software (version 10.5.3, BD Bioscience).
T cell isolation and infection with HIV-1. Peripheral blood mononuclear cells (PBMCs) of anonymous healthy donors from the Gulf Coast Blood Center were used to purify CD4^+ T cells with anti-CD4 MACS beads (Miltenyi Biotec). CD3^+CD4^+CD45RA^+CD45RO^−CCR7^+ naïve T cells, CD3^+CD4^+CD45RA^−CD45RO^+CCR7+ central memory T cells (CMT) and CD3^+CD4^+CD45RA^−CD45RO^+CCR7^− effector memory T cells (EMT) were sorted using a BD FACSAria flow cytometer (BD Bioscience). Naive CD4^+ T cells were stimulated with 5 μg/ml PHA and 6 ng/ml IL-2 in RPMI complete medium for 2 days to generate activated CD4^+ T cells. Sorted T cell subsets or activated T cells were infected with HIV-1 CXCR4-tropic NL4-3 or CCRS-tropic AD8 (both virus clones were obtained from the NIH AIDS Reagent Program) at the indicated MOI for 2 h. The cells were washed with PBS and cultured in RPMI complete medium containing 30 nM CCL19 (Biolegend) and 0.3 ng/ml IL-2 (Biolegend) and for 4 days to establish latent HIV infection as described.
Naïve T cells, activated T cells, CMT or EMT with or without infection with HIV-1 (NL4-3, 1 MOI) were cultured for 4 days in the presence of 30 nM CCL19 and 0.3 ng/ml IL-2 for 4 days to establish latent HIV infection. The cells with or without HIV-1 infections were stimulated with 0.1 μM IDB (Ingenol-3,20-dibenzonate, ENZO Life Sciences) in the presence of 0.2 μM ABT-263 (Adooq Bioscience), 2 μM SAR405 (MedChemExpress) or 10 μM chloroquine (CQ, Sigma) as indicated for 48 h. The cells were then incubated with 1 μM FITC-DEVD-FMK (Biovision), followed by staining with APC-Annexin V (Biolegend) and intracellular staining with PE-anti-HIV p24. The cells were analyzed by flow cytometry. The percentage of cell death was calculated by the loss of live cells negative for annexin V and DEVD staining by comparing treated and untreated groups: (untreated—treated)/untreated x 100%. […]

[4] = test system: HIV-1-infected Hu-HSC mice; assay: SECH treatment of HIV-1-infected Hu-HSC mice (HIV-1 by RT-PCR, rebound after withdrawal); type: in vivo; conditions: JQ1 25 mg/kg b.w. included in SECH
Procedure: Raltegravir and BMS-663068 (20 mg/kg b.w.) were included as the ART regimen daily. Mice in the control group received ART only daily.
Quantification of HIV-1 mRNA and DNA. HIV-1 mRNA was measured by RT-PCR similar to the described protocols. […] The reaction was carried out by iTaq Universal Probes Supermix (Bio-Rad) with a QuantStudio 5 Real-Time PCR System and analyzed with the QuantStudio Design and Analysis Software (Applied Biosystem). Cycle threshold (Ct) values were calibrated using standard curve generated with the standard samples with known amounts of viral copies.
Spleen cells were isolated and red blood cells were lysed with ammonium chloride lysing buffer (0.15 M NH4Cl, 10 mM KHCO3, 0.1 mM EDTA). Bone marrow cells were collected from femur and tibia. […]
Generation of humanized mice for HIV-1 infection and cure studies. […] Three months later, reconstitution of human immune cells in mouse peripheral blood was determined by flow cytometry. […]
Raltegravir and BMS-663068 (20 mg/kg b.w.) alone were also administered on the alternate days. […] During treatments, mice were monitored daily for body weight, food consumption and mobilities. […]
Peripheral blood was collected at different intervals to detect HIV-1 mRNA by RT-PCR. […] Virus clearance was determined in the spleen, bone marrow by RT-PCR, TZA assay and p24 intracellular staining.

[5] = test system: splenocytes of HIV-1-infected Hu-HSC mice; assay: PHA stimulation of splenocytes from Hu-HSC mice 10 days after HIV-1 infection; type: cell-based; conditions: PHA 24 h
Procedure: FIGS. 11A-11C show analyses of Hu-HSC mice by flow cytometry. (FIG. 11A) Flow cytometry analyses of immune cells in the peripheral blood of Hu-HSC mice. NK, nature killer cells; DC, dendritic cells; M1, M1 macrophages; M2, M2 macrophages. (FIG. 11B) Spleen cells were isolated from Hu-HSC mice (n=4) 10 days post HIV-1 infection and cultured with or without PHA for 24 h. Culture media were collected for HIV-1 mRNA determination by RT-PCR. Data are presented as mean ±SD. PHA vs. control, **p=0.0088 (unpaired two-tailed t test). (FIG. 11C) Spleen cells treated in (b) were stained for CD4, followed by intracellular staining of HIV-1 p24 and flow cytometry analysis. […] Data are presented as mean ±SD. PHA vs. control, **p=0.0003 (unpaired two-tailed t test).
Flow cytometry. […] The cells stained with indicated antibodies were analyzed using a BD LSR II flow cytometer (BD Biosciences). […] The cells were analyzed by flow cytometry using a BD LSR II flow cytometer (BD Bioscience) and FlowJo software (version 10.5.3, BD Bioscience).

Compound | IDB-induced killing of T cells latently infected by HIV-1 ([1]; 48 h) | killing of HIV-1-infected cells in mixed culture [2] | killing of uninfected bystander cells in mixed culture [2] | number of HIV-1 p24-producing T cells after latency reversal [3] | IDB-induced cell death in HIV-1-infected CMT [1] | further results
CC1(C)CCC(c2ccc(Cl)cc2)=C(CN2CCN(c3ccc(C(=O)NS(=O)(=O)c4ccc(N[C@H](CCN5CCOCC5)CSc5ccccc5)c(S(=O)(=O)C(F)(F)F)c4)cc3)CC2)C1 [ABT-263, navitoclax] | increased IDB-mediated cell death | killed HIV-1-infected cells | resistant | – | – | loss of viable HIV-1 p24+ cells in IDB-stimulated HIV-1-infected cells ([1]; ABT-263 0.2 μM with IDB, 48 h): significantly increased
CCN(CC)CCCC(C)Nc1ccnc2cc(Cl)ccc12 (centres unmarked) [CQ, Chloroquine] | – | – | – | reduced the number of HIV-1 p24-producing T cells | promoted | –
Cc1sc2c(c1C)C(c1ccc(Cl)cc1)=N[C@@H](CC(=O)OC(C)(C)C)c1nnc(C)n1-2 [JQ1] | – | – | – | – | – | HIV-1 reactivation and clearance on inclusion of JQ1 in SECH [4]: further increased HIV-1 reactivation and clearance
C[C@@H]1COCCN1c1cc(=O)n2c(n1)N(Cc1cncc(Cl)c1)[C@H](C(F)(F)F)CC2 [SAR405] | increased IDB-induced killing | killed HIV-1-infected cells | resistant | decreased the number of HIV-1 p24-producing T cells | promoted | induction of HIV-1 p24 expression by IDB-induced latency reversal ([3]; CMT infected with HIV-1 AD8 at 1 MOI): inhibited
phytohemagglutinin [PHA] | – | – | – | – | – | latency reversal of HIV-1 shown by induction of p24 expression ([3]; CMT, HIV-1 NL4-3 0.1 MOI, 4 days latency): led to latency reversal of HIV-1; latency reversal observed by expression of HIV-1 mRNA after stimulation ([3]; latently infected cells, pol RT-PCR): Latency reversal was also observed; expression of HIV-1 mRNA in splenocytes [5]: induced the expression of HIV-1 mRNA; production of Gag p24 in CD4+ T cells [5]: production of Gag p24
